The test has as its target T1, ΔF508-CFTR (Homo sapiens, UniProt P13569, DEL508-508).
T1 construct: expressed in transfected cells
Description: Membrane potential optical assay, identification of correction compounds (single-addition HTS format). The following applies: PercentActivity; ΔF508-CFTR in NIH3T3 mouse fibroblasts; 16-24 hrs with compound; 10 μM forskolin and 20 μM genistein; read-out: BinnedMaxEfficacy. The test is classed as cell-based. From the text:
Membrane Potential Optical Methods for Assaying ΔF508-CFTR Modulation Properties of Compounds.
The assay utilizes fluorescent voltage sensing dyes to measure changes in membrane potential using a fluorescent plate reader (e.g., FLIPR III, Molecular Devices, Inc.) as a readout for increase in functional ΔF508-CFTR in NIH 3T3 cells. The driving force for the response is the creation of a chloride ion gradient in conjunction with channel activation by a single liquid addition step after the cells have previously been treated with compounds and subsequently loaded with a voltage sensing dye.
To identify small molecules that correct the trafficking defect associated with ΔF508-CFTR; a single-addition HTS assay format was developed. Assay Plates containing cells are incubated for ˜2-4 hours in tissue culture incubator at 37° C., 5% CO2, 90% humidity. Cells are then ready for compound exposure after adhering to the bottom of the assay plates.
The cells were incubated in serum-free medium for 16-24 hrs in tissue culture incubator at 37° C., 5% CO2, 90% humidity in the presence or absence (negative control) of test compound. The cells were subsequently rinsed 3× with Krebs Ringers solution and loaded with a voltage sensing redistribution dye. To activate ΔF508-CFTR, 10 μM forskolin and the CFTR potentiator, genistein (20 μM), were added along with Cl^−-free medium to each well. The addition of Cl^−-free medium promoted Cl^− efflux in response to ΔF508-CFTR activation and the resulting membrane depolarization was optically monitored using voltage sensor dyes.
Bath Solution #1: (in mM) NaCl 160, KCl 4.5, CaCl2 2, MgCl2 1, HEPES 10, pH 7.4 with NaOH.
Chloride-free bath solution: Chloride salts in Bath Solution #1 are substituted with gluconate salts.
NIH3T3 mouse fibroblasts stably expressing ΔF508-CFTR are used for optical measurements of membrane potential. The cells are maintained at 37° C. in 5% CO2 and 90% humidity in Dulbecco's modified Eagle's medium supplemented with 2 mM glutamine, 10% fetal bovine serum, 1×NEAA, β-ME, 1×pen/strep, and 25 mM HEPES in 175 cm^2 culture flasks. For all optical assays, the cells were seeded at ˜20,000/well in 384-well matrigel-coated plates and cultured for 2 hrs at 37° C. before culturing at 27° C. for 24 hrs. for the potentiator assay. For the correction assays, the cells are cultured at 27° C. or 37° C. with and without compounds for 16-24 hours.

T1 sequence (P13569 with tags, fused parts or gaps DEL508-508): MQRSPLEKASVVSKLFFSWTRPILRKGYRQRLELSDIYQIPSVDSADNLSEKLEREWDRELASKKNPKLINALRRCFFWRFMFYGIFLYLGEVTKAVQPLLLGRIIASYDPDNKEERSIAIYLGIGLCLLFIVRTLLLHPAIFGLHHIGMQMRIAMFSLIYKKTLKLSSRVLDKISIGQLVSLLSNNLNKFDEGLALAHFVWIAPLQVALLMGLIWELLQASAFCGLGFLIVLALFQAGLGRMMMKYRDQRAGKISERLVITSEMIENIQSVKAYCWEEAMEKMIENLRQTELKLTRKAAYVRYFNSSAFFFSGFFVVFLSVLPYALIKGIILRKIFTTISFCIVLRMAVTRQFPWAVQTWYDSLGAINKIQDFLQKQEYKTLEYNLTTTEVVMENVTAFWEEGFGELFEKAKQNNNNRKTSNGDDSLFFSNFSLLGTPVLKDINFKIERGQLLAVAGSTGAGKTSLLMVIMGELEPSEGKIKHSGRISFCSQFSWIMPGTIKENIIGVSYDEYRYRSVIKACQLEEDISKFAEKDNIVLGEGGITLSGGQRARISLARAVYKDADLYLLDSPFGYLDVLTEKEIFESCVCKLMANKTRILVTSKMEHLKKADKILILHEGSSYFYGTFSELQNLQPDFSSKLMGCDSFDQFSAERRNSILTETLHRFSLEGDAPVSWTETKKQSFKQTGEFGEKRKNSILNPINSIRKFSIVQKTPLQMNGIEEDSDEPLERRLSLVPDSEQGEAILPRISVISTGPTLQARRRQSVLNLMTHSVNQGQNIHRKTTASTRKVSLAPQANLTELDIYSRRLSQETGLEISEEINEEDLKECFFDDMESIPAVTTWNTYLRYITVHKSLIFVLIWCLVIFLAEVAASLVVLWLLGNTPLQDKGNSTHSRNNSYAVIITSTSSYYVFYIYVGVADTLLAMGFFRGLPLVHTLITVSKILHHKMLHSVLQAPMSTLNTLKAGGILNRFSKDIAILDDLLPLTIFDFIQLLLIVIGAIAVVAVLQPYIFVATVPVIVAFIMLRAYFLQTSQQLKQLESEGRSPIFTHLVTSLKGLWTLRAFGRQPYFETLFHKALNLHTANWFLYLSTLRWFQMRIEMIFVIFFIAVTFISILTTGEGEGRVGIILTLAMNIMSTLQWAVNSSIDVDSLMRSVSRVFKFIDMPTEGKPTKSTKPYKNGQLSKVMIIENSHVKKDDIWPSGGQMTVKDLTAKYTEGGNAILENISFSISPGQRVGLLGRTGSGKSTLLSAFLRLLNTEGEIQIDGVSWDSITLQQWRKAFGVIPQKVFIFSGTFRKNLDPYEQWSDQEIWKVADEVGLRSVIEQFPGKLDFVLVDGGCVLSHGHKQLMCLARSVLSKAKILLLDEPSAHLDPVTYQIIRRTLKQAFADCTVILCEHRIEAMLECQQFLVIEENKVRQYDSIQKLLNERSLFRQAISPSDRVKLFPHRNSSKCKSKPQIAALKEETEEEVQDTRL

Take `COc1ccccc1C(=O)c1ccc(NC(=O)C2(c3ccccc3OC)CC2)nc1` [Compound 1]: the Emax was 25 to 100%.

For `CCc1ccnc(NC(=O)C2(c3ccc4c(c3)OCO4)CC2)c1` [Compound 2], the Emax was over 100%. In the case of `COc1ccc(Cc2cccc(NC(=O)C3(c4ccc5c(c4)OCO5)CC3)n2)cc1` [Compound 3], the Emax was over 100%. Under `COc1ccccc1Cc1ccc(NC(=O)C2(c3ccc(OC(F)(F)F)cc3)CC2)nc1` [Compound 4] stands over 100%; under `Cc1ccccc1Cc1cccc(NC(=O)C2(c3ccc4c(c3)OCO4)CC2)n1` [Compound 5], over 100%. On to `NC(=O)c1ccc(NC(=O)C2(c3ccc4c(c3)OCO4)CC2)nc1` [Compound 6], for which the Emax is 25 to 100%. Take `CCN(CC)C(c1ccc(NC(=O)C2(c3ccc4c(c3)OCO4)CC2)nc1)c1ccccc1OC` (stereo not drawn) [Compound 7]: the Emax is over 100%. Under `COc1ccc(C2(C(=O)Nc3ccc(Cc4ccccc4OC)cn3)CC2)cc1` [Compound 8] stands 25 to 100%; under `COc1ccccc1C(c1ccc(NC(=O)C2(c3ccc4c(c3)OCO4)CC2)nc1)N1CCCC1` (stereo not drawn) [Compound 9], over 100%. Under `COc1ccccc1Cc1ccc(NC(=O)C2(c3ccc(OC)c(OC)c3)CC2)nc1` [Compound 10] stands 25 to 100%; under `COc1ccccc1C(OCCN1CCOCC1)c1ccc(NC(=O)C2(c3ccc4c(c3)OCO4)CC2)nc1` (stereo not drawn) [Compound 11], over 100%. Under `COc1ccc(C2(C(=O)Nc3ccc(C(=O)c4ccccc4OC)cn3)CC2)cc1OC` [Compound 12] stands 25 to 100%; under `COc1ccccc1Cc1ccc(NC(=O)C2(c3ccccc3OC)CC2)nc1` [Compound 13], 25 to 100%. For the molecule `O=C(c1ccccc1)c1ccc(NC(=O)C2(c3ccc4c(c3)OCO4)CC2)nc1` [Compound 14], the Emax was over 100%. Under `O=C(Nc1ccc(CC2CCCCC2)cn1)C1(c2ccc3c(c2)OCO3)CC1` [Compound 16] stands over 100%; under `O=C(Nc1ccc(C(F)(F)F)cn1)C1(c2ccc3c(c2)OCO3)CC1` [Compound 17], 25 to 100%.

In the case of `COc1ccccc1C(OCCN(C(C)C)C(C)C)c1ccc(NC(=O)C2(c3ccc4c(c3)OCO4)CC2)nc1` (stereo not drawn) [Compound 18], the Emax lay in the range of 25 to 100%. Under `CCc1cccc(NC(=O)C2(c3ccc(OC)cc3)CC2)n1` [Compound 19] stands 25 to 100%; under `COc1ccccc1C(c1ccc(NC(=O)C2(c3ccc4c(c3)OCO4)CC2)nc1)N(C)C` (stereo not drawn) [Compound 20], over 100%. Under `Cc1ccnc(NC(=O)C2(c3ccc4c(c3)OCO4)CC2)c1` [Compound 21] stands over 100%; under `COCCN1CCN(C(c2ccc(NC(=O)C3(c4ccc5c(c4)OCO5)CC3)nc2)c2ccccc2OC)CC1` (stereo not drawn) [Compound 22], 25 to 100%. For the molecule `COc1ccccc1C(c1ccc(NC(=O)C2(c3ccc4c(c3)OCO4)CC2)nc1)N1CC(C)OC(C)C1` (stereo not drawn) [Compound 23], the Emax is over 100%.

Take `O=C(Nc1ccc(Cc2c(Cl)cccc2Cl)cn1)C1(c2ccc3c(c2)OCO3)CC1` [Compound 24]: the Emax is over 100%.

Regarding `COc1ccc(C2(C(=O)Nc3ccccn3)CC2)cc1` [Compound 25], the Emax lay within 25 to 100%. Under `CCc1cccc(NC(=O)C2(c3ccc4c(c3)OCO4)CC2)n1` [Compound 26] stands over 100%; under `COc1ccccc1C(=O)c1ccc(NC(=O)C2(c3ccc4c(c3)OCO4)CC2)nc1` [Compound 27], over 100%. Under `COc1ccc(C2(C(=O)Nc3ccc(C(=O)c4ccccc4OC)cn3)CC2)cc1` [Compound 28] stands over 100%; under `CC(C)Cc1ccc(NC(=O)C2(c3ccc4c(c3)OCO4)CC2)nc1` [Compound 29], over 100%.

In the case of `COc1ccccc1C(=O)c1ccc(NC(=O)C2(c3ccc(OC(F)(F)F)cc3)CC2)nc1` [Compound 30], the Emax was in the range of 25 to 100%. Under `COc1ccccc1Cc1ccc(NC(=O)C2(c3ccc(C)cc3)CC2)nc1` [Compound 31] stands 25 to 100%; under `COc1ccccc1C(c1ccc(NC(=O)C2(c3ccc4c(c3)OCO4)CC2)nc1)N1CCCCC1` (stereo not drawn) [Compound 32], over 100%. As to `CCCOC(c1ccc(NC(=O)C2(c3ccc4c(c3)OCO4)CC2)nc1)c1ccccc1OC` (stereo not drawn) [Compound 33], the Emax is over 100%.

Turning to `COc1cccc(C2(C(=O)Nc3ccc(Cc4ccccc4OC)cn3)CC2)c1` [Compound 34], the Emax fell in the range of 25 to 100%. Under `COc1ccccc1Cc1ccc(NC(=O)C2(c3ccc4c(c3)OCO4)CC2)nc1` [Compound 35] stands over 100%. Under `COCC1CCCN1C(c1ccc(NC(=O)C2(c3ccc4c(c3)OCO4)CC2)nc1)c1ccccc1OC` (stereo not drawn) [Compound 36] stands over 100%; under `COc1ccccc1C(=O)c1ccc(NC(=O)C2(c3ccc(SC)cc3)CC2)nc1` [Compound 37], over 100%.

`COc1ccc(C2(C(=O)Nc3ccc(C)cn3)CC2)cc1` [Compound 38]: the Emax was 25 to 100%.

In the case of `COc1ccccc1C(c1ccc(NC(=O)C2(c3ccc4c(c3)OCO4)CC2)nc1)N1CCN(CCO)CC1` (stereo not drawn) [Compound 39], the Emax is 25 to 100%. Under `Cc1ccc(NC(=O)C2(c3ccc4c(c3)OC(F)(F)O4)CC2)nc1` [Compound 40] stands over 100%; under `O=C(Nc1ncccc1OCc1ccccc1)C1(c2ccccc2)CC1` [Compound 41], 25 to 100%; under `Cc1ccc(NC(=O)C2(c3ccc4c(c3)OCO4)CC2)nc1` [Compound 42], over 100%. As to `CCc1ccc(C)nc1NC(=O)C1(c2ccc3c(c2)OCO3)CC1` [Compound 43], the Emax fell in the range of 25 to 100%. Under `COc1ccccc1C(O)c1ccc(NC(=O)C2(c3ccc4c(c3)OCO4)CC2)nc1` (stereo not drawn) [Compound 44] stands over 100%; under `COc1ccccc1C(c1ccc(NC(=O)C2(c3ccc4c(c3)OCO4)CC2)nc1)N1CCCC1C(N)=O` (stereo not drawn) [Compound 45], over 100%; under `COc1ccccc1Cc1ccc(NC(=O)C2(c3ccc(Cl)cc3)CC2)nc1` [Compound 46], over 100%. Under `O=C(Nc1ccc(F)cn1)C1(c2ccc3c(c2)OCO3)CC1` [Compound 47] stands over 100%; under `O=C(Nc1ncccc1OCc1ccccc1)C1(c2ccc3c(c2)OCO3)CC1` [Compound 48], 25 to 100%; under `COc1ccccc1C(c1ccc(NC(=O)C2(c3ccc4c(c3)OCO4)CC2)nc1)N1CCOCC1` (stereo not drawn) [Compound 49], over 100%. Under `Cc1cnc(NC(=O)C2(c3ccc4c(c3)OC(F)(F)O4)CC2)cc1-c1cccc(C(=O)O)c1` [Compound 50] stands 25 to 100%.

Turning to `COC[C@@H]1CCCN1C(c1ccc(NC(=O)C2(c3ccc4c(c3)OCO4)CC2)nc1)c1ccccc1OC` (stereo partly drawn) [Compound 51], the Emax is over 100%. Under `COc1ccccc1Nc1ccc(NC(=O)C2(c3ccc4c(c3)OCO4)CC2)nc1` [Compound 52] stands over 100%; under `CNC(c1ccc(NC(=O)C2(c3ccc4c(c3)OCO4)CC2)nc1)c1ccccc1OC` (stereo not drawn) [Compound 53], over 100%. Under `COc1ccc(C2(C(=O)Nc3cccc(C)n3)CC2)cc1` [Compound 54] stands 25 to 100%; under `COc1ccccc1C(c1ccc(NC(=O)C2(c3ccc4c(c3)OCO4)CC2)nc1)N1CC[C@@H](O)C1` (stereo partly drawn) [Compound 55], over 100%.

Take `CC(C)Cc1cccc(NC(=O)C2(c3ccc4c(c3)OCO4)CC2)n1` [Compound 56]: the Emax is over 100%. For the molecule `COc1ccccc1C(OCCO)c1ccc(NC(=O)C2(c3ccc4c(c3)OCO4)CC2)nc1` (stereo not drawn) [Compound 57], the Emax was over 100%. Under `COc1ccccc1C(c1ccc(NC(=O)C2(c3ccc4c(c3)OCO4)CC2)nc1)N1CCC(O)CC1` (stereo not drawn) [Compound 58] stands over 100%. Under `O=C(Nc1ccc(Cc2ccccc2Cl)cn1)C1(c2ccc3c(c2)OCO3)CC1` [Compound 59] stands over 100%; under `COc1ccc(Cc2ccc(NC(=O)C3(c4ccc5c(c4)OCO5)CC3)nc2)cc1` [Compound 60], over 100%; under `CCc1cccc(NC(=O)C2(c3ccccc3)CC2)n1` [Compound 61], 25 to 100%.

As to `CCN(C)C(c1ccc(NC(=O)C2(c3ccc4c(c3)OCO4)CC2)nc1)c1ccccc1OC` (stereo not drawn) [Compound 62], the Emax is over 100%. Under `O=C(Nc1ccc(Cc2ccccc2)cn1)C1(c2ccc3c(c2)OCO3)CC1` [Compound 63] stands over 100%; under `COc1ccccc1Nc1cccc(NC(=O)C2(c3ccc4c(c3)OCO4)CC2)n1` [Compound 64], 25 to 100%.

Source of the values: patent US8889875B2, “Pyridyl derivatives as CFTR modulators” (Vertex Pharmaceuticals Incorporated, priority 2008, dated 2014).
